# Test results from the NIST ThermoML archive (doi:10.1021/je9003178).
# Numbers after ± are expanded uncertainties.
# Assay: activity coefficient (dimensionless); of the first substance listed, at infinite dilution; xn = mol fraction of the nth substance listed
# Settings: Liquid, Chromatography, x1 = 0
SMILES,activity coefficient (322.65 K),activity coefficient (343.85 K),activity coefficient (352.65 K),activity coefficient (332.85 K),activity coefficient (343.15 K)
CCC(C)CC [3-methylpentane] + CCCCCC[N+](C)(C)C.O=S(=O)([N-]S(=O)(=O)C(F)(F)F)C(F)(F)F,8.65 ± 0.4,8.09 ± 0.37,7.88 ± 0.36,–,–
CCC(C)CC [3-methylpentane] + CCn1cc[n+](C)c1.N#CN=C=[N-],93.7 ± 4.4,–,–,87.2 ± 4.1,81.4 ± 3.8
CC#N [acetonitrile] + CCCCCC[N+](C)(C)C.O=S(=O)([N-]S(=O)(=O)C(F)(F)F)C(F)(F)F,0.486 ± 0.033,0.46 ± 0.033,0.465 ± 0.033,–,–
CC#N [acetonitrile] + CCn1cc[n+](C)c1.N#CN=C=[N-],0.8 ± 0.03,–,–,0.79 ± 0.03,0.79 ± 0.03
c1ccccc1 [benzene] + CCCCCC[N+](C)(C)C.O=S(=O)([N-]S(=O)(=O)C(F)(F)F)C(F)(F)F,0.99 ± 0.025,0.993 ± 0.025,1.02 ± 0.026,–,–
c1ccccc1 [benzene] + CCn1cc[n+](C)c1.N#CN=C=[N-],2.57 ± 0.12,–,–,2.56 ± 0.12,2.56 ± 0.12
CCCCO [butan-1-ol] + CCCCCC[N+](C)(C)C.O=S(=O)([N-]S(=O)(=O)C(F)(F)F)C(F)(F)F,2.25 ± 0.1,1.83 ± 0.079,1.74 ± 0.073,–,–
CCCCO [butan-1-ol] + CCn1cc[n+](C)c1.N#CN=C=[N-],1.59 ± 0.06,–,–,1.47 ± 0.06,1.4 ± 0.05
CCCC=O [butanal] + CCCCCC[N+](C)(C)C.O=S(=O)([N-]S(=O)(=O)C(F)(F)F)C(F)(F)F,0.657 ± 0.03,0.661 ± 0.03,0.677 ± 0.03,–,–
CCCC=O [butanal] + CCn1cc[n+](C)c1.N#CN=C=[N-],2.23 ± 0.1,–,–,2.22 ± 0.1,2.21 ± 0.1
CCC(C)=O [butanone] + CCCCCC[N+](C)(C)C.O=S(=O)([N-]S(=O)(=O)C(F)(F)F)C(F)(F)F,0.422 ± 0.034,0.365 ± 0.035,0.354 ± 0.035,–,–
CCC(C)=O [butanone] + CCn1cc[n+](C)c1.N#CN=C=[N-],1.59 ± 0.06,–,–,1.46 ± 0.06,1.33 ± 0.05
C1CCCCCC1 [cycloheptane] + CCCCCC[N+](C)(C)C.O=S(=O)([N-]S(=O)(=O)C(F)(F)F)C(F)(F)F,14.3 ± 0.66,33.3 ± 1.5,43.4 ± 2,–,–
C1CCCCCC1 [cycloheptane] + CCn1cc[n+](C)c1.N#CN=C=[N-],128 ± 6,–,–,169 ± 8,221 ± 10
C1CCCCC1 [cyclohexane] + CCCCCC[N+](C)(C)C.O=S(=O)([N-]S(=O)(=O)C(F)(F)F)C(F)(F)F,6.6 ± 0.3,5.9 ± 0.27,5.74 ± 0.26,–,–
C1CCCCC1 [cyclohexane] + CCn1cc[n+](C)c1.N#CN=C=[N-],46 ± 2.1,–,–,42.1 ± 2,38.7 ± 1.8
CCCCCCCCCC [decane] + CCCCCC[N+](C)(C)C.O=S(=O)([N-]S(=O)(=O)C(F)(F)F)C(F)(F)F,36.8 ± 1.7,31 ± 1.4,29.6 ± 1.4,–,–
CCCCCCCCCC [decane] + CCn1cc[n+](C)c1.N#CN=C=[N-],699 ± 33,–,–,627 ± 30,565 ± 27
ClCCl [dichloromethane] + CCCCCC[N+](C)(C)C.O=S(=O)([N-]S(=O)(=O)C(F)(F)F)C(F)(F)F,0.678 ± 0.03,0.728 ± 0.029,0.759 ± 0.029,–,–
ClCCl [dichloromethane] + CCn1cc[n+](C)c1.N#CN=C=[N-],0.67 ± 0.03,–,–,0.73 ± 0.03,0.78 ± 0.03
CCOCC [diethyl ether] + CCCCCC[N+](C)(C)C.O=S(=O)([N-]S(=O)(=O)C(F)(F)F)C(F)(F)F,1.52 ± 0.059,1.91 ± 0.084,1.94 ± 0.086,–,–
CCOCC [diethyl ether] + CCn1cc[n+](C)c1.N#CN=C=[N-],9.88 ± 0.45,–,–,9.71 ± 0.45,9.56 ± 0.44
CC(C)OC(C)C [diisopropyl ether] + CCCCCC[N+](C)(C)C.O=S(=O)([N-]S(=O)(=O)C(F)(F)F)C(F)(F)F,3.2 ± 0.15,4.03 ± 0.18,4.12 ± 0.19,–,–
CC(C)OC(C)C [diisopropyl ether] + CCn1cc[n+](C)c1.N#CN=C=[N-],32.1 ± 1.5,–,–,32.3 ± 1.5,32.4 ± 1.5
CCCCCCCCCCCC [dodecane] + CCCCCC[N+](C)(C)C.O=S(=O)([N-]S(=O)(=O)C(F)(F)F)C(F)(F)F,68.1 ± 3.2,55.8 ± 2.6,52.9 ± 2.5,–,–
CCCCCCCCCCCC [dodecane] + CCn1cc[n+](C)c1.N#CN=C=[N-],1410 ± 68,–,–,1290 ± 62,1180 ± 57

SMILES,activity coefficient (322.65 K),activity coefficient (343.85 K),activity coefficient (352.65 K),activity coefficient (332.85 K),activity coefficient (343.15 K)
CCO [ethanol] + CCCCCC[N+](C)(C)C.O=S(=O)([N-]S(=O)(=O)C(F)(F)F)C(F)(F)F,2.41 ± 0.11,1.28 ± 0.043,1.21 ± 0.039,–,–
CCO [ethanol] + CCn1cc[n+](C)c1.N#CN=C=[N-],0.78 ± 0.03,–,–,0.74 ± 0.03,0.75 ± 0.03
CCOC(C)=O [ethyl acetate] + CCCCCC[N+](C)(C)C.O=S(=O)([N-]S(=O)(=O)C(F)(F)F)C(F)(F)F,0.72 ± 0.029,0.748 ± 0.029,0.776 ± 0.028,–,–
CCc1ccccc1 [ethylbenzene] + CCCCCC[N+](C)(C)C.O=S(=O)([N-]S(=O)(=O)C(F)(F)F)C(F)(F)F,1.83 ± 0.079,1.91 ± 0.084,1.97 ± 0.088,–,–
CCc1ccccc1 [ethylbenzene] + CCn1cc[n+](C)c1.N#CN=C=[N-],7.43 ± 0.34,–,–,7.38 ± 0.34,7.29 ± 0.33
CCCCCCC [heptane] + CCCCCC[N+](C)(C)C.O=S(=O)([N-]S(=O)(=O)C(F)(F)F)C(F)(F)F,13.5 ± 0.62,12.3 ± 0.57,11.9 ± 0.55,–,–
CCCCCCC [heptane] + CCn1cc[n+](C)c1.N#CN=C=[N-],183 ± 8.7,–,–,159 ± 7.5,139 ± 6.6
C=CCCCC [hex-1-ene] + CCCCCC[N+](C)(C)C.O=S(=O)([N-]S(=O)(=O)C(F)(F)F)C(F)(F)F,5.8 ± 0.27,5.55 ± 0.25,5.58 ± 0.26,–,–
C=CCCCC [hex-1-ene] + CCn1cc[n+](C)c1.N#CN=C=[N-],43.6 ± 2,–,–,41.6 ± 1.9,39.9 ± 1.9
CCCCCC [hexane] + CCCCCC[N+](C)(C)C.O=S(=O)([N-]S(=O)(=O)C(F)(F)F)C(F)(F)F,9.81 ± 0.45,9.02 ± 0.41,8.85 ± 0.41,–,–
CCCCCC [hexane] + CCn1cc[n+](C)c1.N#CN=C=[N-],111 ± 5.2,–,–,99.6 ± 4.7,89.5 ± 4.2
C=O [methanal] + CCCCCC[N+](C)(C)C.O=S(=O)([N-]S(=O)(=O)C(F)(F)F)C(F)(F)F,0.228 ± 0.037,0.272 ± 0.036,0.311 ± 0.035,–,–
C=O [methanal] + CCn1cc[n+](C)c1.N#CN=C=[N-],0.32 ± 0.04,–,–,0.35 ± 0.04,0.37 ± 0.03
CO [methanol] + CCCCCC[N+](C)(C)C.O=S(=O)([N-]S(=O)(=O)C(F)(F)F)C(F)(F)F,1.16 ± 0.035,0.971 ± 0.025,0.956 ± 0.026,–,–
CO [methanol] + CCn1cc[n+](C)c1.N#CN=C=[N-],0.44 ± 0.03,–,–,0.42 ± 0.03,0.41 ± 0.03
CC1CCCCC1 [methylcyclohexane] + CCCCCC[N+](C)(C)C.O=S(=O)([N-]S(=O)(=O)C(F)(F)F)C(F)(F)F,8.67 ± 0.4,7.78 ± 0.36,7.54 ± 0.35,–,–
CC1CCCCC1 [methylcyclohexane] + CCn1cc[n+](C)c1.N#CN=C=[N-],73.9 ± 3.5,–,–,67.1 ± 3.1,61.3 ± 2.9
CC1CCCC1 [methylcyclopentane] + CCCCCC[N+](C)(C)C.O=S(=O)([N-]S(=O)(=O)C(F)(F)F)C(F)(F)F,6.61 ± 0.3,5.96 ± 0.27,5.83 ± 0.27,–,–
CC1CCCC1 [methylcyclopentane] + CCn1cc[n+](C)c1.N#CN=C=[N-],50.3 ± 2.4,–,–,46.5 ± 2.2,43.2 ± 2
C[N+](=O)[O-] [nitromethane] + CCCCCC[N+](C)(C)C.O=S(=O)([N-]S(=O)(=O)C(F)(F)F)C(F)(F)F,0.975 ± 0.025,0.567 ± 0.031,0.568 ± 0.031,–,–
C[N+](=O)[O-] [nitromethane] + CCn1cc[n+](C)c1.N#CN=C=[N-],0.66 ± 0.03,–,–,0.64 ± 0.03,0.63 ± 0.03
CCCCCCCCC [nonane] + CCCCCC[N+](C)(C)C.O=S(=O)([N-]S(=O)(=O)C(F)(F)F)C(F)(F)F,28.9 ± 1.3,24.6 ± 1.1,23.4 ± 1.1,–,–
CCCCCCCCC [nonane] + CCn1cc[n+](C)c1.N#CN=C=[N-],498 ± 24,–,–,446 ± 21,401 ± 19
CCCCCCCC [octane] + CCCCCC[N+](C)(C)C.O=S(=O)([N-]S(=O)(=O)C(F)(F)F)C(F)(F)F,19 ± 0.88,16.8 ± 0.78,16.2 ± 0.75,–,–
CCCCCCCC [octane] + CCn1cc[n+](C)c1.N#CN=C=[N-],290 ± 14,–,–,260 ± 12,234 ± 11
CCCC(C)=O [pentan-2-one] + CCCCCC[N+](C)(C)C.O=S(=O)([N-]S(=O)(=O)C(F)(F)F)C(F)(F)F,0.612 ± 0.031,0.638 ± 0.03,0.663 ± 0.03,–,–
